Test results published in patent publication US9718840B2, “Condensed 5-oxazolidinone derivative” (SUMITOMO DAINIPPON PHARMA CO., LTD., priority 2014, dated 2017).

What was measured:
[1] = target: T1, human thrombin (Homo sapiens, UniProt P00734); assay: Enzyme selectivity evaluation test: thrombin; assay type: biochemical
T1 construct: human thrombin (manufactured by Enzyme Research Laboratories); purchased Enzyme Research Laboratories
Experimental: S-2366 (pyroGlu-Pro-Arg-pNA.HCl) was added as the substrate at a final concentration of 300 μmol/L. After progression of the reaction, the absorbance was measured at OD 405 nm.

[2] = target: T2, Tissue Factor (TF):Factor VIIa (FVIIa) Complex (Homo sapiens, UniProt P08709); assay: Enzyme selectivity evaluation test: TF:FVIIa complex; assay type: biochemical
T2 construct: Human FVIIa (manufactured by Enzyme Research Laboratories); purchased Enzyme Research Laboratories (FVIIa); R&D Systems, Inc. (TF)
Experimental: S-2288 (H-D-Ile-Pro-Arg-pNA.2HCl) (manufactured by Chromogenix) was added as the substrate at a final concentration of 300 μmol/L. After progression of the reaction, the absorbance was measured at OD 405 nm.

[3] = target: T3, Human urokinase (Homo sapiens, UniProt P00749); assay: Enzyme selectivity evaluation test: urokinase; assay type: biochemical
T3 construct: purchased Calbiochem
Experimental: S-2444 (pyroGlu-Gly-Arg-pNA.HCl) was added as the substrate at a final concentration of 300 μmol/L. After progression of the reaction, the absorbance was measured at OD 405 nm.

[4] = target: T4, Human kallikrein (Homo sapiens, UniProt P03952); assay: Enzyme selectivity evaluation test: plasma kallikrein; assay type: biochemical
T4 construct: purchased Enzyme Research Laboratories
Experimental: S-2288 (H-D-Ile-Pro-Arg-pNA.2HCl) was added as the substrate at a final concentration of 300 μmol/L. After progression of the reaction, the absorbance was measured at OD 405 nm.

[5] = target: Human Trypsin; assay: Enzyme selectivity evaluation test: trypsin; assay type: biochemical
Experimental: S-2222 (Bz-Ile-Glu(γ-OR)-Gly-Arg-pNA.HCl (SEQ ID NO: 1), R═H (50%) and R═CH3 (50%)) was added as the substrate at a final concentration of 150 μmol/L. After progression of the reaction, the absorbance was measured at OD 405 nm.

[6] = tested on: Rabbit nail bleeding models; assay: Bleeding time evaluation test using rabbit nail bleeding model; assay type: in vivo; settings: for Bleeding time: Experiment 2 (maximum 60 minutes), rabbit; for Bleeding time (fold-increase): Experiment 2, ratio to vehicle group average
Experimental: Rabbit nail bleeding models were prepared by a modification of the report of Wong et al. (Wong P C. et al., J. Thromb. Haemost. 7: 1313-1320 (2009)). Male rabbits (JW, 1.5 to 3.5 kg) were anesthetized by the inhalation of isoflurane (ISOFLU®, manufactured by DS Pharma Animal Health Co., Ltd.) (introduced anesthesia: 4%, continuous anesthesia: 2 to 3%).
(§1) For the intravenous administration of a test drug or a vehicle, an indwelling needle was inserted to the auricular vein, and the test drug or the vehicle was promptly intravenously administered (0.67 mL/kg) and then continuously intravenously administered (1 mL/kg/hr). One hour after the start of administration, three posterior toenails were cut and dipped in saline heated to approximately 37° C., and the bleeding time was measured. The bleeding time was defined as a time from the cutting to the arrest of bleeding, and an average value from the three nails was used. The measurement time was 30 minutes at the maximum for experiment 1 and 60 minutes at the maximum for experiment 2. In each experiment, if bleeding for 30 minutes or 60 minutes or longer was confirmed, the bleeding time was regarded as 30 minutes or 60 minutes.

[7] = tested on: Rabbit venous thrombus models; assay: Effect of combined use with antiplatelet drug using rabbit AVST model; assay type: in vivo; settings: alone
Experimental: Rabbit venous thrombus models were prepared by a modification of the report of Wong et al. (Wong P C. et al., J. Pharmacol. Exp. Ther. 292: 351-357 (2000)). […] A tracheostomy tube was inserted to each rabbit, which was then ventilated using a respirator. For the intravenous administration of a test drug and blood collection, catheters were inserted to the right femoral vein and the right femoral artery, respectively. An arteriovenous shunt filled with saline was inserted to the carotid artery and the jugular vein. […] Also, 4-0 silk thread having a length of 5 cm was indwelled in the arteriovenous shunt. Blood was sent for 30 minutes from the carotid artery to the jugular vein via the arteriovenous shunt. The shunt was removed, and the weight of the silk thread covered with thrombus was measured. The weight of the silk thread measured before the experiment was subtracted from the measured weight, and the obtained value was used as a wet thrombus weight. One hour before the open of the arteriovenous shunt, the test drug or a vehicle was promptly intravenously administered (0.67 mL/kg) and then continuously intravenously administered (1 mL/kg/hr). The continuous injection was continued throughout the experiment. […] STA calcium chloride (manufactured by Roche Diagnostics K.K.) was added in an amount equal thereto, and the time required for coagulation was measured.

[8] = tested on: Rabbit nail bleeding models; assay: Effect of combined use with antiplatelet drug using rabbit nail bleeding model; assay type: in vivo; settings: alone; for Bleeding time: rabbit, maximum 60 minutes; for Bleeding time (fold-increase): ratio to vehicle group average
Experimental: as §1, with “Rabbit nail bleeding models were prepared by a modification of the report of Wong et al. (Wong P C. et al., J. Thromb. Haemost. 7: 1313-1320 (2009)). Male rabbits (JW, 1.5 to 3.5 kg) were anesthetized by the inhalation of isoflurane (ISOFLU®, manufactured by DS Pharma Animal Health Co., Ltd.) (introduced anesthesia: 4%, continuous anesthesia: 2 to 3%). For” for “For”, “was” for “was 30 minutes at the maximum for experiment 1 and”, “maximum. If” for “maximum for experiment 2. In each experiment, if”, “for” for “for 30 minutes or”, “as” for “as 30 minutes or”

[9] = target: Human FXIa (Homo sapiens, UniProt P03951); assay: In vitro activated factor XI (FXIa) inhibition test; assay type: biochemical; set-up: purchased Enzyme Research Laboratories; settings: substrate S-2366, 37° C., 10 minutes; read-out: FXIa Inhibition activity IC50
[10] = dose 0.5 + 0.75 mg/kg + mg/kg/h i.v.
[11] = dose 1.5 + 2.25 mg/kg + mg/kg/h i.v.
[12] = dose 5.0 + 7.5 mg/kg + mg/kg/h i.v.
[13] = dose 15 + 22..5 mg/kg + mg/kg/h i.v.

Human FXIa, sequence (P03951 388-625 limits assumed): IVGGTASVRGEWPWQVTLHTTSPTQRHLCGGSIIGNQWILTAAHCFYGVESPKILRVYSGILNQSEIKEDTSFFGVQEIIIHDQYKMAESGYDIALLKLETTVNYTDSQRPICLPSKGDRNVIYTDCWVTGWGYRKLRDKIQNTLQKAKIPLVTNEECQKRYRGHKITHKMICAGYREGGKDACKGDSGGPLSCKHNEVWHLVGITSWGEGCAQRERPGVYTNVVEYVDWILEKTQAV
Human FXIa, sequence (P03951 19-387 partner limits assumed): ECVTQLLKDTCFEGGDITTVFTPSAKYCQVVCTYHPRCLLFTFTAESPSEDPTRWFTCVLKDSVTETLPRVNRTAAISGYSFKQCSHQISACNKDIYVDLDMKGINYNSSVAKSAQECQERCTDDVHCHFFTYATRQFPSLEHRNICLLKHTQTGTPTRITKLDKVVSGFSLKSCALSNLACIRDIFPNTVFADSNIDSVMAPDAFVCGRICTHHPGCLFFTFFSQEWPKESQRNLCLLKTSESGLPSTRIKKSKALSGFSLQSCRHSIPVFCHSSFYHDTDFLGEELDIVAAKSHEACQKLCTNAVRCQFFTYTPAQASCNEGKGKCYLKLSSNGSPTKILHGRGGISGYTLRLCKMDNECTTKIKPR
T4 sequence (P03952 391-638 limits assumed): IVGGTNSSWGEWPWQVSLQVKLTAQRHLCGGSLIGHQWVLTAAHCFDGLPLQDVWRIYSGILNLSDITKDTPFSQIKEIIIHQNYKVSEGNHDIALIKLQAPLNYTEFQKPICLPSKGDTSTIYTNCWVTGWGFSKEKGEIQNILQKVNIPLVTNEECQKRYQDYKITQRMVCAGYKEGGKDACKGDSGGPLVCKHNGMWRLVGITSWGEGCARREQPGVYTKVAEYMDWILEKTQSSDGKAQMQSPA
T4 sequence (P03952 20-390 partner limits assumed): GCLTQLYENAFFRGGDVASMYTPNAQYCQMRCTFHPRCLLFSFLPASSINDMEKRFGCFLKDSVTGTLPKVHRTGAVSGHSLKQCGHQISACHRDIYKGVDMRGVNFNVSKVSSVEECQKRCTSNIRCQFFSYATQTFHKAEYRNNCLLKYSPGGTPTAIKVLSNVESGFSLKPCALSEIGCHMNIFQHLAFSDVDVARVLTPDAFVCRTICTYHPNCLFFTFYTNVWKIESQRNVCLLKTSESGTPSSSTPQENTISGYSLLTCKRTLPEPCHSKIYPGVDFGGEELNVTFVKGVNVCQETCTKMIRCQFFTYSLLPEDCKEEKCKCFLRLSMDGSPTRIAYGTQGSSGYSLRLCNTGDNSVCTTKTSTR
T2 sequence (P08709 213-466 limits assumed): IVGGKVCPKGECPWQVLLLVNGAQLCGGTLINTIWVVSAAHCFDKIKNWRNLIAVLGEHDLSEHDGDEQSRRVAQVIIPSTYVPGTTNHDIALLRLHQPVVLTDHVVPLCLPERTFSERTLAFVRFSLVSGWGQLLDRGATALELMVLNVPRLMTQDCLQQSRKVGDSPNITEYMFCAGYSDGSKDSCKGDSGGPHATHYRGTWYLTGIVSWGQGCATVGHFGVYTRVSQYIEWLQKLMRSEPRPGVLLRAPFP
T2 sequence (P08709 61-212 partner limits assumed): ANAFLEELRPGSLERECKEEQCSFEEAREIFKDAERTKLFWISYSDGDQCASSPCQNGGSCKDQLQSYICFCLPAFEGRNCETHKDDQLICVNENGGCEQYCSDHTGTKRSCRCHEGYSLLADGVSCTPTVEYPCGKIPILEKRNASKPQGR
T2 sequence (P13726 33-251 partner limits assumed): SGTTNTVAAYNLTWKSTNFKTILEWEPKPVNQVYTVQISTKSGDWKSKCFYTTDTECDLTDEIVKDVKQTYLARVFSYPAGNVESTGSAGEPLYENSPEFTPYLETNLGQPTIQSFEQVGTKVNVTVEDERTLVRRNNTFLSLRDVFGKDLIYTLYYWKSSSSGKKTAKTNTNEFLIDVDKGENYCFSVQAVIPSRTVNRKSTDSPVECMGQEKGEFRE

Q: How did the IC50 [1] turn out when Cl.N[C@H](CF)[C@H]1CC[C@H](C(=O)N2CC[C@@H](C3CCCCC3)[C@H]2C(=O)Nc2ccc3[nH]c(C(=O)O)cc3c2)CC1 [Reference Example 2-6, 5-{[(3S)-1-({trans-4-[(1S)-1-Amino-2-fluoroethyl]cyclohexyl}carbonyl)-3-cyclohexyl-L-prolyl]amino}-1H-indole-2-carboxylic acid hydrochloride] was run?
A: The IC50 was greater than 10 µM.

Q: And the IC50 [2]?
A: The IC50 was greater than 10 µM.

Q: And the IC50 [3]?
A: The IC50 was greater than 10 µM.

Q: What about the IC50 [4] of the same compound?
A: Its IC50 is 0.43 µM.

Q: And the IC50 [5]?
A: The IC50 was greater than 10 µM.

Q: And the “Bleeding time” value [6, 10]?
A: The value was 843 ± 270 s.

Q: What about the “Bleeding time” value [6, 11] of the same compound?
A: The value was 772 ± 234 s.

Q: What about the “Bleeding time” value [6, 12] of the same compound?
A: Its value is 768 ± 236 s.

Q: What about the “Bleeding time” value [6, 13] of the same compound?
A: The value was 656 ± 198 s.

Q: What about the “Bleeding time (fold-increase)” value [6, 10] of the same compound?
A: The value was 1.5 ± 0.5 fold-increase.

Q: What about the “Bleeding time (fold-increase)” value [6, 11] of the same compound?
A: The value was 1.3 ± 0.4 fold-increase.

Q: What about the “Bleeding time (fold-increase)” value [6, 12] of the same compound?
A: The value was 1.3 ± 0.4 fold-increase.

Q: And the “Bleeding time (fold-increase)” value [6, 13]?
A: The value was 1.1 ± 0.3 fold-increase.

Q: What about the “PT (ratio)” value [7, 10] of the same compound?
A: The value was 1.00 ± 0.02 ratio.

Q: And the Thrombus weight [7, 10]?
A: Its Thrombus weight is 66 ± 22 mg.

Q: What about the “aPTT (ratio)” value [7, 10] of the same compound?
A: The value was 1.59 ± 0.15 ratio.

Q: What about the “PT (ratio)” value [7, 11] of the same compound?
A: Its value is 1.01 ± 0.00 ratio.

Q: What about the Thrombus weight [7, 11] of the same compound?
A: Its Thrombus weight is 36 ± 6 mg.

Q: And the “aPTT (ratio)” value [7, 11]?
A: The value was 1.84 ± 0.10 ratio.

Q: What about the “Bleeding time” value [8, 11] of the same compound?
A: The value was 772 ± 234 s.

Q: And the “Bleeding time” value [8, 12]?
A: Its value is 768 ± 236 s.

Q: And the “Bleeding time (fold-increase)” value [8, 11]?
A: The value was 1.3 ± 0.4 fold-increase.

Q: What about the “Bleeding time (fold-increase)” value [8, 12] of the same compound?
A: The value was 1.3 ± 0.4 fold-increase.

Q: What about the IC50 [9] of the same compound?
A: The IC50 was 0.006 µM.
